Experimental findings from patent US20240342292A1, “Compounds for the Degradation of EGFR Kinase” (BeiGene Switzerland GmbH, priority 2021, published 2024) are described below.

Test [1] deals with T1, L858R/T790M/C797S EGFR (Homo sapiens, UniProt P00533, C797S/L858R/T790M).
T1 construct: expressed in transfected cells; host or cells: H1975 clone #25 (lentiviral over-expression, endogenous EGFR knocked out by sgRNA)
The test can be described thus: EGFR degradation HTRF assay in H1975-clone #25 (LTC) cells. The settings on record: 16h treatment; for DC50: H1975 # 25-LTC (L858R/T790M/C797S), HTRF; for Dmax: NCI-H1975, H1975 # 25-LTC (L858R/T790M/C797S), maximum percentage of degradation. It counts as cell-based. Summed up:
(§1)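 DC50 from a four-parameter fit of HTRF signal. H1975 mutant-EGFR clones with endogenous EGFR knocked out; 16 h treatment, 10 uM top, 5-fold × 8.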

The subject of test [2] is Del19/T790M/C797S EGFR. Description: EGFR degradation HTRF assay in H1975-clone #28 (DTC) cells. It counts as cell-based. The following applies: H1975 # 28 DTC (Del19/T790M/C797S), 16h treatment; for DC50: HTRF; for Dmax (%): maximum percentage of degradation. The method, boiled down: as §1

T1 sequence (P00533 25-1210 T790M/C797S/L858R): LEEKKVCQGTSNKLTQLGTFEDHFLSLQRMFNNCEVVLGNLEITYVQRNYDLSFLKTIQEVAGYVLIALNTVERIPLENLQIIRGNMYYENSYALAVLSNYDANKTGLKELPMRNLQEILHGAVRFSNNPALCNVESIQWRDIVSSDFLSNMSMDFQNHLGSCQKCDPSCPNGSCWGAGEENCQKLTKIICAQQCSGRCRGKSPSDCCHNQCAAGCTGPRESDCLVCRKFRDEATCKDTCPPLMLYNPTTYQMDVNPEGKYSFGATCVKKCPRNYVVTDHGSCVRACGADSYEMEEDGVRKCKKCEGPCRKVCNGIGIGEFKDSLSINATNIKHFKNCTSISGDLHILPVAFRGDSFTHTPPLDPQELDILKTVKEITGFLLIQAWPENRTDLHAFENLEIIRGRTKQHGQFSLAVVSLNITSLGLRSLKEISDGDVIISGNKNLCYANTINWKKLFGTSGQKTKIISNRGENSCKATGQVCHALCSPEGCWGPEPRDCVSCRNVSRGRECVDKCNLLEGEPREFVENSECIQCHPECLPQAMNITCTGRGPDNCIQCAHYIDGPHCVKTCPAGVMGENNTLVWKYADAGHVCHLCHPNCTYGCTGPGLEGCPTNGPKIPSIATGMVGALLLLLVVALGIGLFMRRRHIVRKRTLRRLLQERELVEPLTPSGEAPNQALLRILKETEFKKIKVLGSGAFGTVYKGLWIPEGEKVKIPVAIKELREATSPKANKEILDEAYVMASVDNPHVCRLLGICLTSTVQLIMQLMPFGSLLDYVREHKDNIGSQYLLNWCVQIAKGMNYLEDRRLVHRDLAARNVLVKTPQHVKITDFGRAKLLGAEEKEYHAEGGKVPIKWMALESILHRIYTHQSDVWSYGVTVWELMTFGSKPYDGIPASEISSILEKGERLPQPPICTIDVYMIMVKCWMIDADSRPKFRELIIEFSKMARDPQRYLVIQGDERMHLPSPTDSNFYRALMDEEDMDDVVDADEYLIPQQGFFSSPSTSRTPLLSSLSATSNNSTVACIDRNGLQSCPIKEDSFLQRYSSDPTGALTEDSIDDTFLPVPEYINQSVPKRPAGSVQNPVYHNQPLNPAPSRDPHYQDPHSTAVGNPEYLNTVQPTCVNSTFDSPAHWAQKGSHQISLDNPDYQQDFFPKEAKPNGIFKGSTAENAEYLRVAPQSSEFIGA

In test [1], `Cc1cc2cc(n1)-c1cnn(C)c1OCCC[C@@H](C)CN1/C(=N/C2=O)Nc2ccc(CN3CCN(C(=O)[C@H]4CN(c5cc(F)c([C@H]6CCC(=O)NC6=O)c(F)c5)CC4(C)C)CC3)cc21` [Example 77, (R)-3-(4-((R)-3,3-dimethyl-4-(4-(((R,E)-1^1,2^6,7-trimethyl-3-oxo-5^2,5^3-dihydro-1^1H,5^1H-11-oxa-4-aza-5(2,1)-benzo[d]imidazola-2(2,4)-pyridina-1(4,5)-pyrazolacycloundecaphane-5-yl)methyl)piperazine-1-carbonyl)pyrrolidin-1-yl)-2,6-difluorophenyl)piperidine-2,6-dione] registered a DC50 of 1.7 nM and a Dmax of 83.4%. In test [2], the DC50 turned out to be 2.2 nM and the “Dmax (%)” value is recorded as 78.3%.

`Cc1cc2cc(n1)-c1cnn(C)c1OCC[C@H]1C[C@@H]1CN1/C(=N/C2=O)Nc2ccc(NC3CN(C4CCN(c5cc(F)c([C@H]6CCC(=O)NC6=O)c(F)c5)CC4)C3)cc21` [Example 455, (R)-3-(4-(4-(3-(((71S,72R,E)-1^1,2^6-dimethyl-3-oxo-5^2,5^3-dihydro-1^1H,5^1H-10-oxa-4-aza-5(2,1)-benzo[d]imidazola-2(2,4)-pyridina-1(4,5)-pyrazola-7(1,2)-cyclopropanacyclodecaphane-5^6-yl)amino)azetidin-1-yl)piperidin-1-yl)-2,6-difluorophenyl)piperidine-2,6-dione]: in test [1], the DC50 was determined as 0.537 nM and the Dmax came to 90.8%. Also, in test [2], the DC50 was determined as 0.912 nM and the “Dmax (%)” value is reported as 85.22%.

Regarding `Cc1cc2cc(n1)-c1cnn(C)c1OCCC[C@@H](C)CN1/C(=N/C2=O)Nc2ccc(N3CCN(CCN(C)c4cc(F)c([C@H]5CCC(=O)NC5=O)c(F)c4)CC3)cc21` [Example 407, (R)-3-(2,6-difluoro-4-(methyl(2-(4-((R,E)-1^1,2^6,7-trimethyl-3-oxo-5^2,5^3-dihydro-1^1H,5^1H-11-oxa-4-aza-5(2,1)-benzo[d]imidazola-2(2,4)-pyridina-1(4,5)-pyrazolacycloundecaphane-5^6-yl)piperazin-1-yl)ethyl)amino)phenyl)piperidine-2,6-dione], in test [1], half-maximal degradation (DC50) was put at 2.29 nM and the Dmax turned out to be 87.9%. In addition, in test [2], the DC50 amounted to 2.09 nM and the “Dmax (%)” value is recorded as 78.49%.

In test [1], `Cc1cc2cc(n1)-c1cnn(C)c1OCCC[C@@H](C)CN1/C(=N/C2=O)Nc2ccc(CN3CC4(C3)CN(C(=O)[C@H]3CN(c5cc(F)c([C@H]6CCC(=O)NC6=O)c(F)c5)CC3(C)C)C4)cc21` [Example 80, (R)-3-(4-((R)-3,3-dimethyl-4-(6-(((R,E)-1^1,2^6,7-trimethyl-3-oxo-5^2,5^3-dihydro-1^1H,5^1H-11-oxa-4-aza-5(2,1)-benzo[d]imidazola-2(2,4)-pyridina-1(4,5)-pyrazolacycloundecaphane-5^6-yl)methyl)-2,6-diazaspiro[3.3]heptane-2-carbonyl)pyrrolidin-1-yl)-2,6-difluorophenyl)piperidine-2,6-dione] had a DC50 of 0.8 nM and a Dmax of 87.5%. Besides, in test [2], it took 0.8 nM to reach half-maximal degradation (DC50) and the “Dmax (%)” value is reported as 87.0%.

Regarding `Cc1cc2cc(n1)-c1cnn(C)c1OCCC[C@@H](C)CN1/C(=N/C2=O)Nc2cc(C)c(CN3CCN(CC4CN(c5cc(F)c([C@H]6CCC(=O)NC6=O)c(F)c5)C4)CC3)cc21` [Example 147, (R)-3-(2,6-difluoro-4-(3-((4-(((R,E)-1^1,2^6,5,7-tetramethyl-3-oxo-5^2,5′-dihydro-1^1H,5^1H-11-oxa-4-aza-5(2,1)-benzo[d]imidazola-2(2,4)-pyridina-(4,5)-pyrazolacycloundecaphane-5^6-yl)methyl)piperazin-1-yl)methyl)azetidin-1-yl)phenyl)piperidine-2,6-dione], in test [1], the DC50 came to 1.83 nM and the Dmax came out at 81.4%. In test [2], the DC50 stood at 2.41 nM and the “Dmax (%)” value is listed as 69.47%.

In test [1], `Cc1cc2cc(n1)-c1c(C)nn(C)c1OCCC[C@@H](C)CN1/C(=N/C2=O)Nc2ccc(C(=O)N(C)C3CCN(CCc4cc(F)c([C@H]5CCC(=O)NC5=O)c(F)c4)CC3)cc21` [Example 233, (R,E)-N-(1-(4-((R)-2,6-dioxopiperidin-3-yl)-3,5-difluorophenethyl)piperidin-4-yl)-N,1^1,1^3,2^6,7-penta methyl-3-oxo-5^2,5^3-dihydro-1^1H,5^1H-11-oxa-4-aza-5(2,1)-benzo[d]imidazola-2(2,4)-pyridina-1(4,5)-pyrazolacycloundecaphane-5^6-carboxamide] yielded a DC50 of 1.05 nM and a Dmax of 91.2%. In addition, in test [2], half-maximal degradation (DC50) was put at 0.806 nM and the “Dmax (%)” value is listed as 86.73%.

As for `Cc1cc2cc(n1)-c1cnn(C)c1OCCC[C@@H](C)CN1/C(=N/C2=O)Nc2ccc(C(=O)N3CC[C@@H](N(C)CCc4cc(F)c([C@H]5CCC(=O)NC5=O)c(F)c4)C3)cc21` [Example 295, (R)-3-(2,6-difluoro-4-(2-(menthyl((R)-1-((R,E)-1^1,2^6,7-trimethyl-3-oxo-5^2,5^3-dihydro-1^1H,5^1H-11-oxa-4-aza-5(2,1)-benzo[d]imidazola-2(2,4)-pyridina-1(4,5)-pyrazolacycloundecaphane-5^6-carbonyl)pyrrolidin-3-yl)amino)ethyl)phenyl)piperidine-2,6-dione], in test [1], the DC50 came out at 0.478 nM and the Dmax is 89.5%. In addition, in test [2], the DC50 is 0.313 nM and the “Dmax (%)” value is 78.39%.

On to `Cc1cc2cc(n1)-c1cnn(C)c1OCCC[C@@H](C)CN1/C(=N/C2=O)Nc2ccc(CN3C[C@@H]4C[C@H]3CN4C(=O)[C@H]3CN(c4cc(F)c([C@H]5CCC(=O)NC5=O)c(F)c4)CC3(C)C)cc21` [Example 185, (R)-3-(4-((R)-3,3-dimethyl-4-((1S,4S)-5-(((R,E)-1^1,2^6,7-trimethyl-3-oxo-5^2,5^3-dihydro-1^1H,5^1H-11-oxa-4-aza-5(2,1)-benzo[d]imidazola-2(2,4)-pyridina-1(4,5)-pyrazolacycloundecaphane-5^6-yl)methyl)-2,5-diazabicyclo[2.2.1]heptane-2-carbonyl)pyrrolidin-1-yl)-2,6-difluorophenyl)piperidine-2,6-dione], for which, in test [1], half-maximal degradation (DC50) was put at 1.04 nM and the Dmax stood at 87.1%. In test [2], the DC50 came out at 0.752 nM and the “Dmax (%)” value worked out at 60.18%.

Take `Cc1cc2cc(n1)-c1cnn(C)c1OCCC[C@@H](C)CN1/C(=N/C2=O)Nc2ccc(N3CCC(NC4CCN(c5cc(F)c([C@H]6CCC(=O)NC6=O)c(F)c5)CC4)CC3)cc21` [Example 401, (R)-3-(2,6-difluoro-4-(4-((1-((R,E)-1^1,2^6,7-trimethyl-3-oxo-5^2,5^3-dihydro-1^1H,5^1H-11-oxa-4-aza-5(2,1)-benzo[d]imidazola-2(2,4)-pyridina-1(4,5)-pyrazolacycloundecaphane-5^6-yl)piperidin-4-yl)amino)piperidin-1-yl)phenyl)piperidine-2,6-dione]: in test [1], the DC50 worked out at 1.37 nM and the Dmax turned out to be 81.1%. For the same compound, in test [2], the DC50 is 3.18 nM and the “Dmax (%)” value turned out to be 70.19%.
